# Results reported in ChEMBL document CHEMBL3301361, “Experimental in vitro DMPK and physicochemical data on a set of publicly disclosed compounds”.
# Test: physchem
# Settings: octan-1-ol/water, pH 7.4
row,Compound,logD
1,COc1cc(O)c2c(c1)/C=C/C[C@H](O)[C@H](O)C(=O)/C=C\C[C@H](C)OC2=O,1.64
2,N#Cc1c(-c2ccccc2)nc(SCCc2ccccc2)[nH]c1=O,1.71
3,C[C@H]1NC(C)(C)CO[C@]1(O)c1cccc(Cl)c1,1.69
4,O=C(N[C@@H]1CN2CCC1CC2)c1ccc(-c2ccccc2)s1,1.77
5,CN1CC=C(c2cccc(O)c2)CC1,0.53
6,NC(=O)c1cccc(O[C@H]2C[C@H]3CC[C@@H](C2)N3CC2CCCCC2)c1,1.55
7,CN(C)C(=O)N[C@H]1CC[C@H](CN2[C@@H]3CC[C@H]2C[C@@H](Oc2cccc(C(N)=O)c2)C3)CC1,-0.07
8,CN(C)C(=O)N[C@H]1CC[C@H](CCN2[C@@H]3CC[C@H]2C[C@@H](Oc2cccc(C(N)=O)c2)C3)CC1,0.12
9,CN(C)C(=O)N[C@H]1CC[C@@H](CCN2[C@@H]3CC[C@H]2C[C@@H](Oc2cccc(C(N)=O)c2)C3)CC1,0.22
10,NC(=O)c1cccc(O[C@H]2C[C@H]3CC[C@@H](C2)N3Cc2ccccc2)c1,1.61
11,NC(=O)c1cccc(O[C@@H]2C[C@H]3CC[C@@H](C2)N3Cc2ccccc2)c1,1.76
12,NC(=O)c1cccc(C[C@H]2C[C@H]3CC[C@@H](C2)N3Cc2ccccc2)c1,1.19
13,NC(=O)c1cccc(C[C@@H]2C[C@H]3CC[C@@H](C2)N3Cc2ccccc2)c1,1.11
14,NC(=O)c1cccc(N[C@H]2C[C@H]3CC[C@@H](C2)N3Cc2ccccc2)c1,1.01
15,NC(=O)c1cccc(O[C@H]2C[C@H]3CC[C@@H](C2)N3Cc2ccccc2)n1,1.71
16,NC(=O)c1cncc(O[C@H]2C[C@H]3CC[C@@H](C2)N3Cc2ccccc2)n1,1.1
17,Cc1c(O[C@H]2C[C@H]3CC[C@@H](C2)N3Cc2ccccc2)cccc1C(N)=O,1.6
18,NC(=O)c1ccc(O[C@H]2C[C@H]3CC[C@@H](C2)N3Cc2ccccc2)nc1,1.25
19,Oc1ccnc2ccccc12,0.8
20,CCN(CC)C(=O)c1ccc(C(c2cccc3cccnc23)N2CCNCC2)cc1 (centres undefined),0.7
21,O=c1c2ccccc2nc2n1CCS2(=O)=O,0.8
22,COc1cccc(COCC(O)CN2CCC(C(N)=O)CC2)c1 (centres undefined),-0.5
23,Cc1cc(O)nc(-n2nc(C)c(Oc3ccccc3O)c2C)n1,1.4
24,C1CCC(NC2CCCCC2)CC1,-0.38
25,CCCCCc1ccc(-c2nnc(N)s2)cc1,4.13

row,Compound,logD
1,CC(C)(C)c1ccc(C2=NC(=O)C(CC(=O)O)S2)cc1 (centres undefined),-0.1
2,c1ccc(CCNCc2ccccc2)cc1,1.65
3,COc1ccc(C=C2SC(=O)NC2=O)cc1OC,1.17
4,Cn1nnc(-c2ccc(-c3ccc(N4C[C@H](COc5ccon5)OC4=O)cc3F)cn2)n1,1.24
5,O=C(O)CCC(=O)N1CCC(c2nc(-c3cccs3)no2)CC1,-1.27
6,COc1cc(F)ccc1-c1cncc(C2CCCN2)c1 (centres undefined),1.1
7,CCCNC(=O)c1nnc2c(-c3cc(C)ccc3OC)cccc2c1N,3.99
8,Cc1nc(-c2ccc(CN3CCC(n4c(=O)[nH]c5ccccc54)CC3)cc2)c(-c2ccccc2)[nH]c1=O,3.8
9,O=C(NCc1ccncn1)c1ccc(Oc2ccc(C#C[C@]3(O)CN4CCC3CC4)cc2)cc1,1.78
10,O=C(NCc1ccncn1)c1ccc(Oc2ccc(C#C[C@@]3(O)CN4CCC3CC4)cc2)cc1,1.77
11,O=C(O)c1cn(C2CC2)c2cc(=[N+]3CCN(C(=O)CC[N+](=O)[O-])CC3)c(F)cc-2c1[O-],0.22
12,Oc1ccc(Br)c2ccccc12,4.3
13,CC(O)c1ccc2c(c1)N(CCN1CCC(NCc3ccc4c(n3)NC(=O)CO4)CC1)C(=O)CO2 (centres undefined),0.25
14,O=C1COc2ccc(CNC3CCN(CCN4C(=O)COc5ccc(O)cc54)CC3)nc2N1,0.52
15,COC(=O)c1ccc2c(c1)N(CCN1CCC(NCc3ccc4c(n3)NC(=O)CO4)CC1)C(=O)CO2,0.83
16,CC(=O)c1ccc2c(c1)N(CCN1CCC(NCc3ccc4c(n3)NC(=O)CO4)CC1)C(=O)CO2,0.37
17,O=C(Cc1cccc2ccccc12)Nc1ccccc1,3.9
18,O=C(Cc1c(C(=O)O)[nH]c2ccccc12)Nc1cccc(C(F)(F)F)c1,1.33
19,CCN(CC)C(=O)c1ccc([C@H](c2cccc(NC(=O)C3CC3)c2)N2CCN(Cc3ccc(F)cc3)CC2)cc1,3.99
20,CN1CCC[C@H]1c1ccccn1,0.44
21,c1cncc(-c2ccc(-c3nnc(C4CN5CCC4CC5)o3)o2)c1 (centres undefined),1.2
22,c1ccc(C2CCNCC2)cc1,0.54
23,Nc1nc(Nc2ccc3nc(-c4ccc(F)cc4)cc(N)c3c2)cc(-c2ccc(C(F)(F)F)cc2)n1,1.54
24,O=C(NCC1CCOCC1)c1nc(OS(=O)(=O)CCC(F)(F)F)ccc1NC(=O)c1ccc(Cn2ccnn2)c2ccccc12,4.2
25,O=C(NCC1CCOCC1)c1ncccc1NC(=O)c1cccc2ccccc12,4.4

row,Compound,logD
1,CCC(CO)NCCNC(CC)CO (centres undefined),-1.42
2,CCN(CC)C(=O)c1ccc(C(=C2CCNCC2)c2ccccc2OC)cc1,1
3,c1ccc2c(OCC3=NCCN3)cccc2c1,0.68
4,C[C@@H]1C2CCCC1(c1cccc(O)c1)CCN2C (some centres undefined),0.52
5,c1ccc(-c2ccc(C3CN4CCC3CC4)cc2)cc1 (centres undefined),1.76
6,COC(=O)C1C(OC(=O)c2ccccc2)CC2CCC1N2C (centres undefined),1.06
7,O=C(O)c1cc2ccccc2n1Cc1ccccc1,0.78
8,COc1ccc2c(c1)cc(C(=O)O)n2Cc1ccc(Cl)c(Cl)c1,1.66
9,NC(Cc1ccccc1)c1ccccc1 (centres undefined),1.32
10,O=C1O[C@]2(CN3CCC2CC3)CN1c1cccs1,0.9
11,O=C(N[C@H]1CN2CCC1CC2)c1ccc(-c2ccccn2)s1,0.7
12,Cc1ccc(NC(=O)c2ccnc(N3CCOCC3)c2)cc1Nc1ccnc(N(C)C2CCN(C)CC2)n1,1.8
13,CC12NC(Cc3ccccc31)c1ccccc12 (centres undefined),1.7
14,CNC1=Nc2ncccc2C(c2cc[nH]c2)=NC1c1cccs1 (centres undefined),1.73
15,CCCCCCCCCC(=O)N[C@@H](Cc1c[nH]c2ccccc12)C(=O)N[C@H](CC(N)=O)C(=O)N[C@@H](CC(=O)O)C(=O)N[C@@H]1C(=O)NCC(=O)N[C@@H](CCCN)C(=O)N[C@@H](CC(=O)O)C(=O)N[C@H](C)C(=O)N[C@@H](CC(=O)O)C(=O)NCC(=O)N[C@H](CO)C(=O)N[C@@H]([C@H](C)CC(=O)O)C(=O)N[C@@H](CC(=O)c2ccccc2N)C(=O)O[C@@H]1C,-0.94
16,CNC1=Nc2ncccc2C(c2ncco2)=NC1c1cccs1 (centres undefined),1.14
17,CCNC1=Nc2ccccc2C(c2ccccc2)=NC1c1cccs1 (centres undefined),3.98
18,CC(=O)N(C)c1ccccc1,1.1
19,CNC1=Nc2ncccc2C(c2ccco2)=NC1c1ccns1 (centres undefined),1.44
20,Cc1ccc(OC(=O)N2CCN3CCC2CC3)cc1,1.02
21,COc1ccc2c3c1OC1C(O)C=CC4C(C2)N(C)CCC341 (centres undefined),0.8
22,COc1cc2c(c(OC)c1OC)-c1ccc(OC)c(=O)cc1C(NC(C)=O)CC2 (centres undefined),1.12
23,Cc1cc(N)c2cc(NC(=O)CC(=O)Nc3ccc4nc(C)cc(N)c4c3)ccc2n1,1.35

# Same assay, conditions: octan-1-ol/water, pH 7.4, LogD7.4
row,Compound,logD
1,COC(=O)Nc1cnc(-c2ccc(F)cc2)n(CC(=O)NC(C(=O)C(F)(F)F)C(C)C)c1=O (centres undefined),1.82
2,CC(C)C(NC(=O)Cn1c(-c2ccccc2)ccc(NC(=O)OCc2ccccn2)c1=O)C(=O)C(F)(F)F (centres undefined),1.91
3,CC(C)CC(c1ccccn1)n1[nH]c(=O)c2nc3cc(Cl)ccc3c(O)c2c1=O (centres undefined),1.83
4,O=c1[nH]n(C(c2ccccn2)C2CCCC2)c(=O)c2c(O)c3ccc(Cl)cc3nc12 (centres undefined),1.9
5,Cc1occc(=O)c1OCc1ccc(F)cc1,1.91
6,Cc1occc(=O)c1OCc1ccccc1,1.87
7,O=c1c(-c2ccc(O)c(O)c2)coc2cc(O)ccc12,1.88
8,CC(C)C(NC(=O)Cn1c(-c2ccccc2)cc2c(O)nc(O)nc2c1=O)C(=O)C(F)(F)F (centres undefined),1.88
9,N=C(N)Nc1nc2ccccc2o1,1.91
10,O=C(NNc1cccc(Cl)c1)c1cccnc1Cl,1.87
11,Nc1c2c(nc3c(-c4ncccn4)cccc13)CN(C1CCC1)C2=O,1.85
12,COc1cc2c(Nc3c(Cl)ccc4c3OCO4)ncnc2cc1OCC1CCN(C)CC1,1.83
13,O=S1NC(Cc2ccc3ccccc3c2)=NO1 (centres undefined),1.85
14,Fc1cccc(-c2cncc(CNCC3CC3)n2)c1F,1.82
15,CCC(c1nc2ccsc2c(=O)n1Cc1ccccc1)N(CCCN)C(=O)c1ccc(C)cc1 (centres undefined),1.81
16,C[C@H]1O[C@@H](n2cnc3c(N)nc(OC(C4CC4)C(F)(F)F)nc32)[C@H](O)[C@@H]1O (some centres undefined),1.83
17,CCN1CCC[C@H](CN2CCN(C(=O)Nc3ccc(Cl)c(Cl)c3)CC2)C1,1.86
18,c1ccc(C2Cc3ccccc3CN2)cc1 (centres undefined),1.9

row,Compound,logD
1,c1ccc(CC2NCCc3ccccc32)cc1 (centres undefined),1.89
2,Cc1cccc(S(=O)(=O)NC(=O)N2CCC(N3CCC(Oc4ccc(Cl)c(Cl)c4)CC3)CC2)c1,1.84
3,N#Cc1cccc(S(=O)(=O)NC(=O)N2CCC(N3CCC(Oc4ccc(Cl)c(Cl)c4)CC3)CC2)c1,1.81
4,CCOC(=O)c1coc2ccccc2c1=O,1.81
5,CCCCNc1nc(N)c2[nH]c(=O)n(Cc3ccc(OCCN(C)C)nc3)c2n1,1.9
6,N#Cc1ccc2cccc(O)c2n1,1.81
7,CNc1cnc(-c2ccc(F)cc2)n(CC(=O)NC(C(=O)C(F)(F)F)C(C)C)c1=O (centres undefined),1.86
8,COC(=O)N1CCN(c2ccnc(-n3ccnc3)n2)C(CC(=O)NCc2ccc3c(c2)OCO3)C1 (centres undefined),1.88
9,O=C(O)c1[nH]c2cc(Cl)cc(Cl)c2c1/C=C1\CCN(c2ccccc2)C1=O,1.85
10,Cc1ccc(NC(=O)c2ccnc(N3CCOCC3)c2)cc1Nc1ccnc(OCC2CCCN(C)C2)n1 (centres undefined),1.9
11,NS(=O)(=O)c1ccc2c(c1)C1C=CCC1C(c1cccc3ccccc13)N2 (centres undefined),1.9
12,CCCc1c(OCc2cccc(NC(=O)c3ccccc3C(=O)O)c2)ccc(C(C)=O)c1O,1.9
13,Cc1cc(=O)[nH]c2ccccc12,1.9
14,O=C1C(=O)c2cccnc2-c2ccccc21,1.88
15,NC(=O)c1c(N)sc2c1CCCC2,1.84
16,CC(C)C(NC(=O)Cn1c(-c2ccccc2)ccc(NC=O)c1=O)C(=O)C(F)(F)F (centres undefined),1.84
17,CN(C)CCCNS(=O)(=O)c1ccc(Nc2nccc(-c3cnc4ccccn34)n2)cc1,1.9
18,Nc1nc(-c2ccccc2)nn1Cc1ccccc1,1.91
